According to US20060229355A1, “3.3'-Diindolylmethane compositions inhibit angiogenesis” (priority 2005, published 2006):

Legend:
CDK2 = assay: Western blot of G1 cell cycle components in HUVECs: CDK2; assay type: cell-based, human; conditions: 25 μM DIM
From the text: (§1) DIM down-regulates CDK2 and CDK6, and up-regulates CDK inhibitor p27^Kip1 in HUVECs. […] To examine this possibility, the expressions of G1 cell cycle components were investigated by Western blot analysis.

[1] = tested on: MCF-7 human breast cancer cells; assay: MCF-7 human breast carcinoma xenograft in athymic mice; assay type: in vivo, athymic (nu/nu) mice; conditions: 5 mg/kg s.c. five times weekly
Method: (§2) II. Antiangiogenic DIM inhibits human breast carcinoma in xenograft model. Twenty female athymic (nu/nu) mice were acclimated to semi-purified phytoestrogen-free AIN-76 ad libitum for 7 days prior to the study. They were implanted with a 60-d release 0.72 mg estradiol pellet in the subscapular region. Mice were then inoculated s.c. in the bilateral flanks with 0.1 mL Matrigel containing 3×10^6 MCF-7 human breast cancer cells and randomly grouped (10/group) to receive s.c. injections of either 5 mg/kg DIM or DMSO in a PBS vehicle, five times weekly. Feed intake, body weight were measured weekly and palpable tumor diameter were measured twice per week. Tumor volumes were calculated as: (π/6)×[length(mm)×width^2(mm)] [15]. The experiment was terminated at 34 days. All animals were killed by CO2 asphyxiation.
(§3) DIM inhibits the growth of transplanted MCF-7 human breast carcinoma cells. Since we observed an inhibition of in vivo angiogenesis by DIM in the Matrigel plug assay, we determined whether DIM could inhibit the growth of transplanted breast carcinoma cells in female athymic (nu/nu) mice. Mice were injected s.c. with MCF-7 human breast cancer cells in the bilateral flanks. Mice were randomly assigned (10 mice/group) to receive s.c. injection of either DIM at 5 mg/kg dose or vehicle control DMSO in PBS, five times weekly. Feed intake, body weight and palpable tumor diameter were measured twice per week. Feed intake (22.2±1.3 g/wk vs. 22.9±1.0 g/wk) and body weight gain (2.3±0.2 g vs. 2.4±0.2 g) were not altered by DIM administration. […] Tumor volumes were calculated as: (π/6)×[length(mm)×width^2(mm^2)].

p21^Waf1/CiP1 = assay: Western blot of G1 cell cycle components in HUVECs: p21Waf1/Cip1; assay type: cell-based, human; conditions: DIM treatment
From the text: as §1

p27^Kip1 = assay: Western blot of G1 cell cycle components in HUVECs: p27Kip1; assay type: cell-based, human; conditions: 25 μM DIM
From the text: as §1

HUVECs [2] = assay: Wound migration assay; assay type: cell-based; conditions: Homo sapiens, HUVEC; 25 μM DIM, 18 h incubation; read-out: number of cells migrating across the wound, % of control
Method: Wound migration assay. Migration was assessed using an in vitro wound assay. One hundred thousands cells were seeded into two 12-well cell culture plates and cultured in EGM-MV BulletKit to confluency. A scrape was made in the center of the cell monolayers with a sterile pipette tip to create a gap of constant width. Cellular debris was removed by gently washing with PBS. The initial images of the wounds were captured under phase contrast microscopy and the wounded monolayers were incubated further for 18 h in fresh EGM-MV BulletKit medium in the presence of DMSO or DIM of various concentrations (5, 10, or 25 μM). Pictures were taken with a Nikon Coolpix990 digital camera connected to the Nikon Eclipse TS 100 microscope at a 100× magnification. To quantify the migration, photographs of the initial wounded monolayers were compared with the corresponding images of cells at the end of the incubation. […] Cells that migrated across the lines were counted. All quantification were done on full-size images with the weight of artificial lines negligible compared to the size of the cell body. At least 5 fields from each triplicate treatment were counted. […] To quantify the migration, artificial lines fitting the cutting edges were drawn on pictures of the original wounded cells and overlaid on images of cells after incubation. Cells that migrated across the lines were counted. […]

HUVECs [3] = assay: Tube formation assay on Matrigel; assay type: cell-based, human; conditions: 24 h pre-treatment, 10 μM DIM, 3-h incubation
Method: Tube formation assay. Endothelial cells plated onto a gel of basement membrane protein rapidly organize into multicellular tube-like structures [12; 13]. Twelve-well cell culture plates coated with Matrigel were ordered from BD-Discovery Labware and assay was performed according to the manufacturer's instruction. Briefly, Matrigel-coated 12-well plates were allowed to solidify at 37° C. for 1 h. Endothelial cells pre-treated with 0, 10, or 25 μM DIM for 24 h were trypsinized and 6×10^4 cells were added per well in 1 mL medium. Cell viability was determined by trypan blue exclusion stain before seeding. DIM treatments continued for the rest of the assay. Tube formation was observed periodically over time under a phase contrast microscope, and representative pictures were taken at 3 h and 24 h. In a further assay of angiogenesis, we examined the effect of DIM on HUVEC tube formation in culture. Capillary formation on Matrigel is a process that requires cell-matrix interaction. For the assay, HUVECs were pre-treated without or with 10 or 25 μM of DIM for 24 h and then seeded on a thin layer of Matrigel. Capillary tube structure formation was obvious at 3 h of incubation and was almost completed at 24 h in the control medium.

[4] = Toxicity observations in MCF-7 xenograft study (feed intake, body weight, organ weights); assay type: in vivo, athymic (nu/nu) mice; conditions: 5 mg/kg s.c. five times weekly
Method: as §2, §3

HUVECs [5] = assay: Cell cycle analysis by flow cytometry; assay type: cell-based, human; conditions: 24 h
Method: DIM induces a G1 cell cycle arrest in HUVECs. To further characterize the antiproliferative activity of DIM in HUVECs, we examined the effects of this indole on cell cycle regulation. For the cell cycle studies, HUVECs treated with vehicle control or 25 μM DIM for 24 h were analyzed by flow cytometry as described above.

HUVECs [6] = assay: Cell invasion assay (Matrigel-coated transwell Boyden chamber); assay type: cell-based, human
Method: Cell invasion assay. Invasion assays were carried out using modified transwell Boyden chamber system. Chambers were assembled using 8 μm-pore BD Falcon transwell inserts as upper chambers, and the 12-well plates as lower chambers. Cell culture inserts were coated with 10 μl/insert Matrigel. Coated inserts were left to dry overnight in a laminar flow fume hood and then rehydrated with DMEM supplemented with 0.1% BSA for 1 h at 37° C. Rehydrated Matrigel wells were washed with the same medium. HUVECs were harvested by trypsin/EDTA and resuspended in 0.1% BSA/DMEM. Medium containing 5% FBS was applied to the lower chamber as chemoattractant, then cells were seeded at 1.5×10^5 cells/insert in the presence of 0, 5, 10 or 25 μM DIM and incubated for 2 h at 37° C. and 5% CO2. At the end of the incubation, the cells in the upper chamber were removed with cotton swabs and cells that traversed the Matrigel to the lower surface of the insert were fixed with 10% formalin/PBS and stained with crystal violet in 10% formalin/PBS. Cells that migrated to the lower surface of the insert were counted under the light microscope at a magnification of 40×. Each treatment was in triplicate. The quantification of the invasive cells in the presence of DIM was expressed as the percentage of the quantity of invasive cells under control conditions (DMSO). We next conducted a cell invasion assay to examine the effect of DIM on HUVEC movement through a simulated extracellular matrix. In a modified Boyden chamber assay, the transwell inserts were coated with a thin layer of Matrigel and inserted into wells containing 5% FBS medium as a chemoattractant. As a negative control, serum-free medium containing 0.1% BSA was used in the lower chamber wells. Cells which transversed the Matrigel and migrated to the lower part of the insert were photographed and quantified. […] In response to 5% FBS, however, HUVECs traversed the Matrigel and migrated to the lower chamber. The invasion of HUVECs was decreased by DIM in a concentration-dependent manner, in which DIM at 25 μM decreased cell invasion to 52% of the control.

CDK4 = assay: Western blot of G1 cell cycle components in HUVECs: CDK4; assay type: cell-based, human; conditions: DIM treatment
From the text: as §1

HUVECs [7] = assay: Cell proliferation assay (HUVEC cell counting); assay type: cell-based, human
Method: Antiangiogenic effects of the DIM analogs are pre-screened with vascular endothelial cells proliferation assays. […] Cells were then treated by 0, 2, 5, 10, or 25 μM DIM candidate at 24, 48, and 72 h. DIM was dissolved in DMSO as 1000× stock solutions for each treatment. Cell numbers were assessed at various time points by trypsinization and counting with a Coulter Z1 cell counter, as described below in Example I below. Cell proliferation assay. To determine endothelial cell proliferation, approximately 8×10^4 HUVECs were seeded in 6-well plates and allowed to grow for 24 h. Cells were then treated by 0, 2, 5, 10, or 25 μM DIM at 24, 48, and 72 h. DIM was dissolved in DMSO as 1000× stock solutions for each treatment. Cell numbers were assessed at various time points by trypsinization and counting with a Coulter Z1 cell counter. DIM inhibits proliferation, invasion, migration and tube formation of HUVECs. […] First, DIM's effect on proliferation of human vascular endothelial cell (HUVECs) was examined. HUVECs were treated with 0, 2, 5, 10, or 25 μM DIM for 24 to 72 h. DIM inhibited HUVECs proliferation in a concentration- and time-dependent manner, with up to 70% inhibition of proliferation at 72 h treatment with 25 μM DIM.

[8] = tested on: neovascularization of Matrigel plugs; assay: Matrigel plug angiogenesis assay (hemoglobin content); assay type: in vivo, C57BL/6 mice; conditions: 5 mg/kg s.c., from five days before Matrigel inoculation and 2 more weeks
Method: Matrigel plug angiogenesis assay. In vivo angiogenesis assays were performed on female C57BL/6 mice as described before. Mice were acclimated to semi-purified phytoestrogen-free AIN-76 ad libitum for 7 days prior to the study and randomly grouped (5/group). DMSO vehicle or DIM at 5 mg/kg was injected s.c. five days before Matrigel inoculation. Heparin (64 Unit/mL) and aFGF (100 ng/mL) were gently mixed with cold liquid Matrigel at 4° C. The Matrigel solution (0.3 ml) was injected into mice s.c. in the bilateral flanks. Animals were treated with DMSO control or DIM for 2 more weeks and terminated by CO2 inhalation. The gels were surgically removed and vascularization of Matrigel plugs was quantified by measuring hemoglobin content using Drabkin Reagent kit 525. DIM reduces in vivo angiogenesis. Using a rodent Matrigel plug angiogenesis assay, we next investigated whether DIM affects neovascularization in vivo. Matrigel is a urea extract of Engelbreth-Holm-Swarm (EHS) tumor, which contains laminin, collagen IV, heparan sulfate proteoglycan, and several growth factors, all of which are present in the authentic basement membrane of solid tumors. When injected subcutaneously into rodents, Matrigel forms a solid “plug” beneath the skin. The hemoglobin content in the Matrigel parallels blood vessels development in the gel, thereby allowing quantitation. […]

cyclin E = assay: Western blot of G1 cell cycle components in HUVECs: cyclin E; assay type: cell-based, human; conditions: DIM treatment
From the text: as §1

CDK6 = assay: Western blot of G1 cell cycle components in HUVECs: CDK6; assay type: cell-based, human; conditions: 25 μM DIM
From the text: as §1

Q: For `c1ccc2c(Cc3c[nH]c4ccccc34)c[nH]c2c1` [DIM, 3,3′-Diindolylmethane], which “CDK2 expression, % of the control” value (CDK2) is on record?
A: Its value is 35%.

Q: And the “reduction of tumor growth” value ([1]; after 3 weeks (P=0.22))?
A: The value was 40%.

Q: And the “final average tumor volume” value ([1]; day 34, control 3121±554.5 mm^3)?
A: Its value is 1125±434 mm^3.

Q: And the “reduction of tumor growth” value ([1]; termination at day 34 (P<0.05))?
A: The value was 64%.

Q: What about the “level of p21Waf1/Cip1” value (p21^Waf1/CiP1) of the same compound?
A: Its value is “not significantly affected”.

Q: What about the “p27Kip1 expression, fold of the control” value (p27^Kip1) of the same compound?
A: The value was ~3.5 fold.

Q: What about the activity at 25 µM (HUVECs [2]) of the same compound?
A: Its activity at 25 µM is 40%.

Q: And the “capillary tube structure formation (in words)” value (HUVECs [3])?
A: The value was “decreased ability to extend and differentiate into tube-like structures”.

Q: What about the body weight gain [4] of the same compound?
A: The body weight gain was “not altered”.

Q: What about the feed intake [4] of the same compound?
A: Its feed intake is “not altered”.

Q: What about the relative organ weights [4] of the same compound?
A: Its relative organ weights is “not significantly affected”.

Q: And the “cell population in G1 phase (in words)” value (HUVECs [5]; 5 μM DIM, asynchronous growing cells)?
A: Its value is “increased the cell population in G1 phase”.

Q: And the “proportion of S phase cells” value (HUVECs [5]; 25 μM DIM, vehicle control 15.2±1.3)?
A: The value was 2.4±0.9%.

Q: And the “proportion of cells in the G1 phase” value (HUVECs [5]; 25 μM DIM, vehicle control 71.8±2.5%)?
A: The value was 85.7±2.9%.

Q: And the “cell invasion (in words)” value (HUVECs [6]; 5 μM DIM)?
A: The value was “trend of decreased cell invasion”.

Q: What about the “cell invasion (in words)” value (HUVECs [6]; 10 μM DIM) of the same compound?
A: Its value is “more significant effect”.

Q: What about the “cell invasion, % of the control” value (HUVECs [6]; 25 μM DIM, 5% FBS chemoattractant, 2 h) of the same compound?
A: The value was 52%.

Q: What about the “level of CDK4” value (CDK4) of the same compound?
A: Its value is “not significantly affected”.

Q: What about the “inhibition of proliferation (in words)” value (HUVECs [7]; 5 μM DIM, 72 h) of the same compound?
A: Its value is “Significant inhibition of proliferation”.

Q: And the inhibition at 25 µM (HUVECs [7]; Homo sapiens, HUVEC, 25 μM DIM, 72 h treatment)?
A: The inhibition at 25 µM was ≤ 70%.

Q: What about the “cell survival and viability (trypan blue exclusion)” value (HUVECs [7]; conditions of the proliferation assay, 0-25 μM, 24-72 h) of the same compound?
A: Its value is “not obviously affected”.

Q: And the “reduction of neovascularization compared to controls (hemoglobin content)” value [8]?
A: The value was “up to 76%”.

Q: What about the “level of cyclin E” value (cyclin E) of the same compound?
A: The value was “not significantly affected”.

Q: What about the “CDK6 expression, % of the control” value (CDK6) of the same compound?
A: The value was 40%.
